Data: patent publication US4985445A, “Cancer cell metastasis inhibitors and novel compounds” (Meiji Seika Kaisha, Ltd., priority 1988, dated 1991)
Counter-ions that a name gives are not always drawn. Like-named read-outs stand apart in the source and are kept apart here.

Experiments:
[1] = test system: B16 subline of high pulmonary metastatic potential; assay: Inhibition of pulmonary metastasis of B16 subline pretreated with compound and injected i.v. into BDF1 mice; type: in vivo, murine; mouse BDF1; conditions: for Inhibition of metastasis to the lungs (in words): B16 subline, BDF1 mice
Description: Based on the method described priviously (Method in Cancer Research, 15, 399-439, 1978), a subline of high metastatic potential (high pulmonary colonization) was selected from murine melanoma B16 by repeating the i.v. transplantation of the tumor cells in BDF1 mice and the isolation of pulmonary metastatic clones.
Evaluation of the metastasis inhibiting activity was performed based on the method described previously (Proc. Natl Acad. Sci. USA, 83, 1752-1756, 1986, Cancer Research, 46, 858-862, 1986).
Firstly, the B16 subline of high metastatic potential was inoculated into Dulbecco's ME medium (DME medium) supplemented with 10% bovine fetal serum and the compound represented by general formula (I) described above was added thereto.
The B16 subline of high pulmonary metastatic potential was inoculated into DME medium supplemented with 10% bovine fetal serum and 30, 100 or 300 μg/ml of N (3-phenylpropyl)-1-deoxynojirimycin was added thereto followed by incubation at 37° C. for 3 days in the presence of 5% CO2.
Inhibition of metastasis was examined in a manner similar to Test Example 2 except that N-(3-phenyl-2-propenyl)-1-deoxy-nojirimycin and N-(3-p-chlorophenyl-3-methyl-2-propenyl)-1-deoxynojirimycin were used instead of N-(3-phenylpropyl)-1-deoxynojirimycin in Test Example 2. In this test example, however, 2.5×10^5 cells each of the B16 subline were transplanted to 3 mice for each group.
The B16 subline of high pulmonary metastatic potential was inoculated into DME medium supplemented with 10% bovine fetal serum and 30 μg/ml of N-(4-phenoxy-trans-2-butenyl)-1-deoxynojirimycin was added thereto followed by incubation at 37° C. for 3 days in the presence of 5% CO2. […] The number of colonies of the B16 subline formed on the surface of and in the lung was counted.
Inhibition of metastasis was examined in a manner similar to Test Example 5 except that N-(2-phenoxyethyl)-1-deoxynojirimycin was used instead of N-(4-phenoxy-trans-2-butenyl)-1-deoxynojirimycin in Test Example 5.
The B16 sibline of high pulmonary metastatic potential was inoculated into DME medium supplemented with 10% bovine fetal serum and 10 μg/ml of D-glucaro-δ-lactam calcium salt was added thereto followed by incubation at 37° C. for 3 days in the presence of 5% CO2. […] The number of the colonies formed on the surface of and in the lung was counted.
Inhibition of metastasis was examined in a manner similar to Test Example 8 except that D-glucaro-δ-lactam methyl ester and D-glucaro-δ-lactam ethyl ester were used instead of D-glucaro-δ-lactam calcium salt in Test Example 8.
The B16 subline of high pulmonary metastatic potential was inoculated into DME medium supplemented with 10% bovine fetal serum and 10 μg/ml of 2,6-di-O-(acetylsalicyloyl)-D-gluco-δ-lactam was added thereto followed by incubation at 37° C. for 3 days in the presence of 5% CO2.
The B16 subline of high pulmonary metastatic potential was inoculated into DME medium supplemented with 10% bovine fetal serum and 30 μg/ml of 6-O-triphenylmethyl-D-gluco-δ-lactam was added thereto followed by incubation at 37° C. for 3 days in the presence of 5% CO2.
The B16 subline of high pulmonary metastatic potential was inoculated into DME medium supplemented with 10% bovine fetal serum and 30 μg/ml of 1-deoxynojirimycin was added thereto followed by incubation at 37° C. for 3 days in the presence of 5% CO2.

[2] = Acute toxicity (LD50) by mice; conditions: mouse, in vivo
[3] = test system: murine tumor cell line L 929; assay: Cytotoxic activity against L 929 (growth observed with inverted microscope, 4 days); type: cell-based; conditions: for Growth: 4 days;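 as to growth: + means growth and ± means marked inhibition and - means cell death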
Description: The B16 subline of high pulmonary metastatic potential and murine tumor cell line L 929 were cultured in DME medium supplemented with 10% bovine fetal serum at 37° C. in the presence of 5% CO2.
The B16 subline of high pulmanary metastatic potential and murine tumor cell line L 929 were cultured in DME medium supplemented with 10% bovine fetal serum at 37° C. in the presence of 5% CO2.

[4] = test system: B16 subline of high pulmonary metastatic potential; conditions: 3 days;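 also: + means growth and ± means marked inhibition and - means cell death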
Description: (§1) The B16 subline of high pulmonary metastatic potential and murine tumor cell line L 929 were cultured in DME medium supplemented with 10% bovine fetal serum at 37° C. in the presence of 5% CO2. Then, cells were detached from the Petri dish with trypsin-EDTA solution. The B16 subline and L 929 were suspended in the medium described above in 1×10^4 cells/ml and 1×10^3 cells/ml, respectively. Each suspension, 150 μl, was added to 50 μl of N-(3-phenylpropyl)-1-deoxynojirimycin solution or Adriamycin (control) solution. Incubation was performed for 3 days for the B16 subline and for 4 days for L 929 strain.
as §1, with “of N-(4-phenoxy-trans-2-butenyl)-1-deoxynojirimycin” for “of N-(3-phenylpropyl)-1-deoxynojirimycin”, “days in” for “days for”, “L 929.” for “L 929 strain.”
as §1, with “of D-glucaro-δ-lactam calcium salt” for “of N-(3-phenylpropyl)-1-deoxynojirimycin”, “(control) solutions.” for “(control) solution.”, “days in” for “days for”, “L 929.” for “L 929 strain.”
The B16 subline of high pulmonary metastatic potential and murine tumor cell line L 929 were cultured in DME medium supplemented with 10% bovine fetal serum at 37° C. in the presence of 5% CO2. Then, cells were detached from the Petri dish with trypsin-EDTA solution. The B16 subline and L 929 were suspended in the medium described above in 1×10^4 cells/ml and 1×10^3 cells/ml, respectively. Each suspension, 150 μl, was added to 50 μl of 2,6-di-O-(1-(p-chlorobenzoyl)-5-methoxy-2-methylindole-3-acetyl)-D-gluco-δ-lactam solution or and Adriamycin (control) solutions. Incubation was performed for 3 days in the B16 subline and for 4 days in L 929.
The B16 subline of high pulmanary metastatic potential and murine tumor cell line L 929 were cultured in DME medium supplemented with 10% bovine fetal serum at 37° C. in the presence of 5% CO2. Then, cells were detached from the Petri dish with trypsin-EDTA solution. The B16 subline and L 929 were suspended in the medium described above in 1×10^4 cells/ml and 1×10^3 cells/ml, respectively. Each suspension, 150 μl, was added to 50 μl of 6-O-triphenylmethyl-D-gluco-δ-lactam solution or Adriamycin (control) solutions. Incubation was performed for 3 days in the B16 sibline and for 4 days in L 929.
The B16 subline of high pulmonary metastatic potential was inoculated into DME medium supplemented with 10% bovine fetal serum and 30 μg/ml of 1-deoxynojirimycin was added thereto followed by incubation at 37° C. for 3 days in the presence of 5% CO2. […] Next, the cells were detached from the Petri dish with trypsin-EDTA solution. The cells were suspended in PBS- in 1×10^6 cells/ml as viable cells. This suspension, 0.1 ml, was intravenously injected in the tail vein of the mouse BDF1 (8 week age, male; 1 group, 3 mice). After feeding for 14 days, the mouse was sacrificed to excise the lungs. The number of colonies of the B16 subline on the surface of and in the lungs was counted.

[5] = Table 10, 30 μg/ml, None 82 ± 11.2

OC[C@H]1NC[C@H](O)[C@@H](O)[C@@H]1O [1-Deoxynojirimycin, 1-deoxynojirimycin]
Inhibition of metastasis to the lungs (in words) [1]: the number of colonies on the surface of and in the lungs was markedly inhibited | Pulmonary Metastasis (Mean ± Standard Deviation) ([1]; Table 15, 30 μg/ml, 3 mice, None 119 ± 37): 31 ± 11 no.

CC(=O)Oc1ccccc1C(=O)OC[C@H]1NC(=O)[C@H](OC(=O)c2ccccc2OC(C)=O)[C@@H](O)[C@@H]1O [2,6-di-O-(acetylsalicyloyl)-D-gluco-δ-lactam]
LD50 ([2]; ip): > 500 mg/kg | Inhibition of metastasis to the lungs (in words) [1]: markedly inhibited | Pulmonary Metastasis (Mean ± Standard Deviation) ([1]; Table 12, 10 μg/ml, 3 mice, None 53 ± 22.4): 11.2 ± 3.5 no.

COc1ccc2c(c1)c(CC(=O)OC[C@H]1NC(=O)[C@H](OC(=O)Cc3c(C)n(C(=O)c4ccc(Cl)cc4)c4ccc(OC)cc34)[C@@H](O)[C@@H]1O)c(C)n2C(=O)c1ccc(Cl)cc1 [2,6-di-O-[1-(p-chlorobenzoyl)-5-methoxy-2-methylindole-3-acetyl]-D-gluco-δ-lactam]
Cytotoxicity (in words) ([3]; L 929, even at a concentration as high as 10 μg/ml): did not show marked cytotoxity | Growth ([3]; Table 11, L 929, 3 μg/ml): + | Growth ([3]; Table 11, L 929, 10 μg/ml): + | Growth ([3]; Table 11, L 929, 30 μg/ml): + | Growth ([4]; Table 11, B16 subline, 10 μg/ml): +

COc1cccc2c1C(=O)c1c(O)c3c(c(O)c1C2=O)C[C@@](O)(C(=O)CO)C[C@@H]3O[C@H]1C[C@H](N)[C@H](O)[C@H](C)O1 [Adriamycin, reference compound]
Growth ([3]; Table 2, L 929, 1 μg/ml, control): - | Growth ([3]; Table 5, L 929, 1 μg/ml, control): - | Growth ([3]; Table 8, L 929, 1 μg/ml, control): - | Growth ([3]; Table 11, L 929, 1 μg/ml, control): - | Growth ([3]; Table 13, L 929, 1 μg/ml, control): - | Growth ([4]; Table 2, B16 subline, 0.1 μg/ml, control): - | Growth ([4]; Table 5, B16 subline, 0.1 μg/ml, control): - | Growth ([4]; Table 8, B16 subline, 0.1 μg/ml, control): - | Growth ([4]; Table 11, B16 subline, 0.1 μg/ml, control): - | Growth ([4]; Table 13, B16 subline, 0.1 μg/ml, control): -

O=C(O)[C@H]1NC(=O)[C@H](O)[C@@H](O)[C@@H]1O [D-Glucaro-δ-lactam calcium salt, D-glucaro-δ-lactam calcium salt]
Cytotoxicity (in words) ([3]; L 929, even at a concentration as high as 30 μg/ml): did not show marked cytotoxicity | Growth ([3]; Table 8, L 929, 10 μg/ml): + | Growth ([3]; Table 8, L 929, 30 μg/ml): + | Inhibition of metastasis to the lungs (in words) [1]: markedly inhibited | Pulmonary Metastasis, Mouse 1 ([1]; Table 9, 10 μg/ml, 14 days): 7 no. | Pulmonary Metastasis, Mouse 2 ([1]; Table 9, 10 μg/ml, 14 days): 4 no. | Pulmonary Metastasis, Mouse 3 ([1]; Table 9, 10 μg/ml, 14 days): 0 no. | Pulmonary Metastasis (Mean ± Standard Deviation) ([1]; Table 9, 10 μg/ml, 14 days, None 69 ± 1.0): 3.7 ± 3.5 no. | Pulmonary Metastasis, % ([1]; Table 9, 10 μg/ml, None = 100): 5.4% | Growth ([4]; Table 8, B16 subline, 10 μg/ml): + | Growth ([4]; Table 8, B16 subline, 30 μg/ml): +

CCOC(=O)[C@H]1NC(=O)[C@H](O)[C@@H](O)[C@@H]1O [D-Glucaro-δ-lactam ethyl ester, D-glucaro-δ-lactam ethyl ester]
Inhibition of metastasis to the lungs (in words) [1]: markedly inhibited | Pulmonary Metastasis (Mean ± Standard Deviation) [1, 5]: 13 ± 5.4 no.

COC(=O)[C@H]1NC(=O)[C@H](O)[C@@H](O)[C@@H]1O [D-Glucaro-δ-lactam methyl ester, D-glucaro-δ-lactam methyl ester]
LD50 ([2]; iv): > 5000 mg/kg | LD50 ([2]; po): > 10000 mg/kg | Inhibition of metastasis to the lungs (in words) [1]: markedly inhibited | Pulmonary Metastasis (Mean ± Standard Deviation) [1, 5]: 21 ± 8.5 no.

O=C(O)[C@H]1NC(=O)[C@H](O)[C@@H](O)[C@@H]1O [D-Glucaro-δ-lactam sodium salt]
LD50 ([2]; iv): > 3000 mg/kg | LD50 ([2]; po): > 5000 mg/kg

OC[C@@H]1[C@@H](O)[C@H](O)[C@@H](O)CN1CCOc1ccccc1 [N-(2-Phenoxyethyl)-1-deoxynojirimycin, N-(2-phenoxyethyl)-1-deoxynojirimycin]
Inhibition of metastasis to the lungs (in words) [1]: markedly inhibited | Pulmonary Metastasis (Mean ± Standard Deviation) ([1]; Table 7, 100 μg/ml, None 86 ± 22.1): 7 ± 2.1 no.

CC(=CCN1C[C@H](O)[C@@H](O)[C@H](O)[C@H]1CO)c1ccc(Cl)cc1 [N-(3-p-chlorophenyl-3-methyl-2-propenyl)-1-deoxynojirimycin]
Inhibition of metastasis to the lungs (in words) [1]: markedly inhibited

OC[C@@H]1[C@@H](O)[C@H](O)[C@@H](O)CN1CC=Cc1ccccc1 [N-(3-phenyl-2-propenyl)-1-deoxynojirimycin]
LD50 ([2]; ip): > 500 mg/kg | Inhibition of metastasis to the lungs (in words) [1]: markedly inhibited | Pulmonary Metastasis (Mean ± Standard Deviation) ([1]; Table 4, 30 μg/ml, 2.5×10^5 cells, 3 mice, None 109 ± 32.0): 16.8 ± 12.6 no.
